Measured values from patent US20220257706A1, “EPIDERMAL GROWTH FACTOR RECEPTOR (EGFR) LIGANDS” (NANYANG TECHNOLOGICAL UNIVERSITY, priority 2019, published 2022).
Read-outs that look alike come from different tables or passages of the source.

Legend:
HaCaT cells [1] = type: cell-based, human; conditions: for mitogenic effect compared with bleogen pB1: 1 μM, crystal violet assay; for EGFR dependence of proliferative/mitogenic effect: co-incubation with EGFR neutralizing antibody (clone LA1)
Procedure: HaCaT (human keratinocyte), HUVEC-CS (endothelial cells) cells were cultured in Dulbecco's modification of Eagle's medium (DMEM) supplemented with 10% fetal bovine serum and 100 U/mL of penicillin and streptomycin. Normal Human Epidermal Keratinocytes adult purchased from Lifeline® cell technology were cultured in Lifeline® DermaLife K Medium. They were grown in a 5% CO2 humidified incubator at 37° C. HaCaT cells were stably transfected with pGL4.33[luc2P/SRE/Hygro] (Promega) and selected using 250 μg/mL hygromycin. Stable HaCaT cells expressing SRE luciferase reporter were maintained with 250 μg/mL hygromycin.
Cell proliferation was determined using crystal violet staining. […] 3417-Da-peptide aB1 is a CRP isolated from Achyranthes bidentata with the amino acid sequence […] (SEQ ID NO:11). Crystal violet staining was performed as previously described. Briefly, after the incubation period, the wells were fixed with 4% buffered paraformaldehyde for 20 min. The cells were then stained with 0.25% crystal violet in 20% methanol for 15 min. The excess crystal violet stain was rinsed with distilled water for 4-5 times and air-dried. Glacial acetic acid (10%) in Milli-Q water was added to extract the crystal violet stain. The absorbance was then measured at 595 nm using a microplate reader (Tecan Infinite® 200 Pro, Switzerland).

EGFR = EGFR (Homo sapiens, UniProt P00533); experiment: TR-FRET EGFR ligand binding assay (competitive displacement of biotin-EGF); set-up: purchased PerkinElmer
Procedure: TR-FRET ratio was measured using a microplate reader in dual emission mode (Excitation: 340 nm, emission: 665 nm and 615 nm) (Cytation 1, US). […] (SEQ ID NO:11) or roseltide rT7 with an amino acid sequence of […] (SEQ ID NO:17) were used as negative control.

HaCaT cells [2] = experiment: Cell migration scratch assay; type: cell-based, human; conditions: data not shown
Procedure: Cell migration was monitored using the scratch assay. Briefly, HaCaT cells were seeded into 2 well silicone inserts with a defined gap of 500 μm (ibidi, Germany). […] After incubation for 8 h, the wells were photographed using inverted phase-contrast microscope. Images were analyzed for the percentage of cell-free area using the Wimasis image analysis platform.

HUVEC-CS cells = experiment: Endothelial tube formation assay; type: cell-based; conditions: data not shown
Procedure: Endothelial tube formation assay was performed using a μ-slide (ibidi, Germany). Briefly, 10 μL of gel matrix (BD Matrigel™ Basement Membrane Matrix) was casted onto each μ-slide well and left to solidify. […] After incubation for 2 h, the wells were photographed using inverted phase-contrast microscope. Images were analyzed for the numbering of branching points using the Wimasis image analysis platform.

newborn ICR mice = experiment: Newborn mice model for incisor eruption; type: in vivo, mouse; conditions: 3 mg/kg subcutaneous, five consecutive days; saline control 153 h
Procedure: ICR mice were obtained from Vital Rital Laboratories (Beijing, China). […] All experiments were approved and performed in accordance with the institutional guidelines of the Experimental Animal Center of the Chinese Academy of Medical Science (Beijing, China). Subcutaneous injections were made for five consecutive days in the nape of the neck of the newborn mice starting from the day of birth (day 0). […] Incisor eruption was recorded daily by visual inspection. Incisor eruption was defined as the time at which a given tooth first pierced the oral epithelium.

C57BL/6 mice = experiment: Full-thickness splinted excisional wound healing in C57BL/6 mice; type: in vivo, mouse; conditions: topical, three consecutive days; bleogen pB1 10 nmol/wound, EGF 1 nmol/wound; vs saline
Procedure: C57BL/6 mice were obtained from Vital Rital Laboratories (Beijing, China). […] All experiments were approved and performed in accordance with the institutional guidelines of the Experimental Animal Center of the Chinese Academy of Medical Science (Beijing, China).
(§1) Full-thickness 5-mm splinted excisional wounding of mice was performed. Briefly, mice were anesthetized using an intraperitoneal injection of sodium pentobarbital (50 mg kg^−1). The hair of the back was shaved with an electric clipper followed by a depilatory cream. Using a 5-mm-diameter sterile biopsy punch, symmetrical full-thickness excisional wounds were created. Splints were placed around the wound using adhesive glue and secured with four interrupted sutures. The wounds and splints were covered with Tegaderm (3M, US). At indicated days within the 14 days post-injury course, wound diameters were measured. The size of wound was calculated from the average of two diameter measurements along the x and y axis.
Full-thickness 5 mm splinted excisional wounding of mice was performed on C57BL/6 mice as described above.

[3] = test system: STZ-induced diabetic C57BL/6 mice; experiment: Full-thickness splinted excisional wound healing in streptozotocin-induced diabetic C57BL/6 mice; type: in vivo, mouse; conditions: 1 nmol/wound topical, five consecutive days
Procedure: as §1
Diabetes was induced into C57BL/6 mice by two intraperitoneal injection (80 mg/kg) of STZ at day 1 and 5. Starting from day 8, blood glucose was monitored regularly for two weeks. […] Blood glucose was also monitored at day 14 post-injury to ensure the mice are diabetic.

c-fos = experiment: Gene expression analysis (qPCR) of c-fos in HaCaT cells; type: cell-based, human; conditions: 2 h treatment
Procedure: (§2) Total RNA was extracted from HaCaT and primary human keratinocytes using PureLink™ RNA mini kit (Thermo Fisher Scientific, US). First-strand cDNA was synthesised from 600 ng of total RNA using SuperScript™ II Reverse Transcriptase and Oligo(dT)12-18 (Thermo Fisher Scientific, US) according to the manufacturer's instructions. Quantitative PCR (qPCR) was performed with iTaq Universal SYBR Green Supermix (Bio-Rad, US) on a CFX96 Touch Real-Time PCR Detection System (Bio-Rad, US) for 40 cycles. PCR reaction (20 μL): 3 μL cDNA, 1 μL primer mix (10 μM), 6 μL DEPC-treated water and 10 μL mastermix. […] GAPDH was used as a housekeeping gene for normalization. Fold changes of gene expressions with c-fos and c-Jun were calculated using the 2^−ΔΔCT method.

c-Jun = experiment: Gene expression analysis (qPCR) of c-Jun in HaCaT cells; type: cell-based, human; conditions: 2 h treatment
Procedure: as §2

[4] = test system: pepsin, trypsin, pronase, human neutrophil elastase; experiment: Proteolytic stability against a panel of proteases; conditions: disulfide bridges reduced and S-alkylated by iodoacetamide
Procedure: (§3) Samples were collected at various time points.
(§4) All collected samples from various stability assays were analyzed by RP-HPLC with a linear gradient of mobile phase A (0.05% TFA/H2O) and mobile phase B (0.05% TFA/ACN) on aeris peptide XB-C18 column (Phenomenex, US). The resulting peaks were collected and identified by MALDI-TOF MS. The results were expressed as percentage of initial concentration using the peak area of the HPLC profile.

[5] = Heat stability (100° C., RP-HPLC); type: physicochemical
Procedure: Samples were collected at various time points (0, 30, 60, and 120 min).

physchem = conditions: buffer
Procedure: as §3, §4

[6] = test system: pepsin, trypsin, pronase, human neutrophil elastase; experiment: in vitro
Procedure: as §3, §4

Chain of EGFR (P00533 25-645 limits assumed): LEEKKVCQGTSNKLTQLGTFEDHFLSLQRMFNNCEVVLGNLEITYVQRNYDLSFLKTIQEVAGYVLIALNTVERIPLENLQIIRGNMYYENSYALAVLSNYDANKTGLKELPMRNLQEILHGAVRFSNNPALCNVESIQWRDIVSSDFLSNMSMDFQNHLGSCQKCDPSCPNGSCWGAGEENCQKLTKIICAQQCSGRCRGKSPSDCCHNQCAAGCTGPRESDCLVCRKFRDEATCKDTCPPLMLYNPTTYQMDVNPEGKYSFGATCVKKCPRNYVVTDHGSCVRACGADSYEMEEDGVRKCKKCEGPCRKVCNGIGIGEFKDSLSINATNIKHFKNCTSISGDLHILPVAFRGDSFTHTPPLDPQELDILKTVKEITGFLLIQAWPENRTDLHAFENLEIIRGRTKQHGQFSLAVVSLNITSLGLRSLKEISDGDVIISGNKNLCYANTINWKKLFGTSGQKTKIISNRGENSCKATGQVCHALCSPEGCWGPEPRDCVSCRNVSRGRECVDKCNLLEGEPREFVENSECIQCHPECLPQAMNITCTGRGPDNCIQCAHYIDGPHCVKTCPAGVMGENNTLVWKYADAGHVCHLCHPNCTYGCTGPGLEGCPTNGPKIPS

CC[C@H](C)[C@@H]1NC(=O)[C@H](CCC(=O)O)NC(=O)[C@H]([C@@H](C)O)NC(=O)[C@@H]2CSSC[C@@H]3NC(=O)[C@H](Cc4ccccc4)NC(=O)[C@H](CC(N)=O)NC(=O)[C@H](CO)NC(=O)[C@H](CSSC[C@H](NC(=O)[C@@H](N)CCC(N)=O)C(=O)N[C@@H](CCCCN)C(=O)N4CCC[C@H]4C(=O)N[C@@H](CC(N)=O)C(=O)NCC(=O)N[C@@H](C)C(=O)N[C@@H](CCCCN)C(=O)N2)NC(=O)[C@H](CSSC[C@@H](C(=O)N[C@@H](C)C(=O)N[C@@H](CC(N)=O)C(=O)N[C@@H](CCCNC(=N)N)C(=O)O)NC(=O)[C@H]([C@@H](C)O)NC(=O)CNC(=O)[C@H](CO)NC(=O)[C@H](CCCCN)NC(=O)[C@H](CCC(N)=O)NC(=O)CNC(=O)[C@H](C)NC(=O)[C@@H](Cc2ccc(O)cc2)NC(=O)[C@H](CCCNC(=N)N)NC(=O)[C@H](CC(C)C)NC3=O)NC(=O)[C@@H]2CCCN2C(=O)[C@@H]2CCCN2C(=O)[C@H]([C@@H](C)CC)NC(=O)[C@H](CO)NC1=O [[Y25y]pB1]
mitogenic effect compared with bleogen pB1 (HaCaT cells [1]; 72 h): more mitogenic than bleogen pB1 | EGFR dependence of proliferative/mitogenic effect (HaCaT cells [1]): EGFR-dependent | EGFR affinity / EGF-like biological activity compared with bleogen pB1 (EGFR displacement) (EGFR): higher affinity than bleogen pB1 | IC50 (EGFR): 580 ± 0.089 nM | EGFR affinity / EGF-like biological activity compared with bleogen pB1 (EGFR displacement) (EGFR; listed as Y25y pB1): increased EGF-like biological activities

EGF: epidermal growth factor, SEQ ID NO:10, positive control
HaCaT cell migration (HaCaT cells [2]): accelerate | endothelial cell tube formation (HUVEC-CS cells): accelerate | time of incisor eruption in newborn mice (newborn ICR mice): 100 h | wound healing, full-thickness excision wound model in C57 mice (C57BL/6 mice): accelerated wound healing from day 3 to day 11 | wound healing rate vs vehicle control in STZ-induced diabetic mice [3]: healed at a significantly faster rate starting from day 4 post-injury | mRNA expression of c-fos (c-fos): significantly upregulate | mRNA expression of c-Jun (c-Jun): significantly upregulate

CC[C@H](C)[C@H](NC(=O)[C@H](CCC(=O)O)NC(=O)[C@@H](NC(=O)[C@H](CSCC(N)=O)NC(=O)[C@H](CCCCN)NC(=O)[C@H](C)NC(=O)CNC(=O)[C@H](CC(N)=O)NC(=O)[C@@H]1CCCN1C(=O)[C@H](CCCCN)NC(=O)[C@H](CSCC(N)=O)NC(=O)[C@@H](N)CCC(N)=O)[C@@H](C)O)C(=O)N[C@@H](CO)C(=O)N[C@H](C(=O)N1CCC[C@H]1C(=O)N1CCC[C@H]1C(=O)N[C@@H](CSCC(N)=O)C(=O)N[C@@H](CSCC(N)=O)C(=O)N[C@@H](CO)C(=O)N[C@@H](CC(N)=O)C(=O)N[C@@H](Cc1ccccc1)C(=O)N[C@@H](CSCC(N)=O)C(=O)N[C@@H](CC(C)C)C(=O)N[C@@H](CCCNC(=N)N)C(=O)N[C@@H](Cc1ccc(O)cc1)C(=O)N[C@@H](C)C(=O)NCC(=O)N[C@@H](CCC(N)=O)C(=O)N[C@@H](CCCCN)C(=O)N[C@@H](CO)C(=O)NCC(=O)N[C@H](C(=O)N[C@@H](CSCC(N)=O)C(=O)N[C@@H](C)C(=O)N[C@@H](CC(N)=O)C(=O)N[C@@H](CCCNC(=N)N)C(=O)O)[C@@H](C)O)[C@@H](C)CC [S-alkylated bleogen pB1, reference compound]
degradation by proteases (time) [4]: within a couple of minutes

NCESGTSCIPGAQHNCCSGVCVPIVTIFYGVCY (listed as Achyranthes bidentata) [aB1, reference compound]
HaCaT cell proliferation, concentration up to which not active (HaCaT cells [1]; negative control): > 10 µM

COc1cc2ncnc(Nc3cccc(Cl)c3)c2cc1OC [AG1478, reference compound]
effect of co-incubation on bleogen pB1-induced HaCaT cell proliferation (HaCaT cells [1]; serum-free medium, 72 h): substantially inhibited

N#CC(=C(/N)Sc1ccccc1N)/C(C#N)=C(\N)Sc1ccccc1N [U0126, reference compound]
effect of co-incubation on bleogen pB1-induced HaCaT cell proliferation (HaCaT cells [1]): substantially inhibited

CC[C@H](C)[C@@H]1NC(=O)[C@H](CCC(=O)O)NC(=O)[C@H]([C@@H](C)O)NC(=O)[C@@H]2CSSC[C@@H]3NC(=O)[C@H](Cc4ccccc4)NC(=O)[C@H](CC(N)=O)NC(=O)[C@H](CO)NC(=O)[C@H](CSSC[C@H](NC(=O)[C@@H](N)CCC(N)=O)C(=O)N[C@@H](CCCCN)C(=O)N4CCC[C@H]4C(=O)N[C@@H](CC(N)=O)C(=O)NCC(=O)N[C@@H](C)C(=O)N[C@@H](CCCCN)C(=O)N2)NC(=O)[C@H](CSSC[C@@H](C(=O)N[C@@H](C)C(=O)N[C@@H](CC(N)=O)C(=O)N[C@@H](CCCNC(=N)N)C(=O)O)NC(=O)[C@H]([C@@H](C)O)NC(=O)CNC(=O)[C@H](CO)NC(=O)[C@@H](CCCCN)NC(=O)[C@H](CCC(N)=O)NC(=O)CNC(=O)[C@H](C)NC(=O)[C@H](Cc2ccc(O)cc2)NC(=O)[C@H](CCCNC(=N)N)NC(=O)[C@H](CC(C)C)NC3=O)NC(=O)[C@@H]2CCCN2C(=O)[C@@H]2CCCN2C(=O)[C@H]([C@@H](C)CC)NC(=O)[C@H](CO)NC1=O [[K29k]pB1]
mitogenic effect compared with bleogen pB1 (HaCaT cells [1]; 72 h): more mitogenic than bleogen pB1 | EGFR dependence of proliferative/mitogenic effect (HaCaT cells [1]): EGFR-dependent | wound closure compared with EGF and bleogen pB1 in STZ-diabetic mice [3]: at a similar rate as EGF, and much faster than bleogen pB1 | wound healing rate vs vehicle control in STZ-induced diabetic mice [3]: healed at a significantly faster rate starting from day 4 post-injury | wound closure compared with EGF and bleogen pB1 in STZ-diabetic mice ([3]; listed as K29k pB1): comparable | half-life at 0.1 M [5]: > 8.33 h | half-life at 0.1 M (physchem): > 8.33 h | half-life at 0.1 M [6]: > 8.33 h | EGFR affinity / EGF-like biological activity compared with bleogen pB1 (EGFR displacement) (EGFR): higher affinity than bleogen pB1 | potency relative to bleogen pB1 (fold more potent) (EGFR): approximately 60 fold | IC50 (EGFR; TR-FRET, mean±S.D., three independent experiments, read-out: IC50, displacement of biotin-EGF from EGFR): 27 ± 0.05 nM | EGFR affinity / EGF-like biological activity compared with bleogen pB1 (EGFR displacement) (EGFR; listed as K29k pB1): increased EGF-like biological activities | potency relative to bleogen pB1 (fold more potent) (EGFR; listed as K29k pB1): 60 fold
